The values that follow come from ChEMBL document CHEMBL1156967 (Bioorg Med Chem Lett, 2010).

SMILES strings stand for the structures.

For assay [1], the target named is Voltage-gated inwardly rectifying potassium channel KCNH2 (Homo sapiens, UniProt Q12809). Briefly: Inhibition of human ERG by patch clamp technique. For orientation: Patch clamp records ionic current or voltage across a cell membrane.
Assay [2] relates to Rattus norvegicus. The assay can be described thus: Antiinflammatory activity in Lewis rat plasma assessed as reduction in LPS-stimulated TNFalpha accumulation at 5 mg/kg, ig administered 4 hrs before LPS challenge measured after […] by ELISA. In kind it is functional. The note with it: po, route intragastric.
Assay [3] concerns the target Mitogen-activated protein kinase 11 (Homo sapiens, UniProt Q15759). The assay can be described thus: Inhibition of p38beta assessed as gamma-[33P]ATP incorporation by scintillation counting.

Voltage-gated inwardly rectifying potassium channel KCNH2, sequence (Q12809 whole entry): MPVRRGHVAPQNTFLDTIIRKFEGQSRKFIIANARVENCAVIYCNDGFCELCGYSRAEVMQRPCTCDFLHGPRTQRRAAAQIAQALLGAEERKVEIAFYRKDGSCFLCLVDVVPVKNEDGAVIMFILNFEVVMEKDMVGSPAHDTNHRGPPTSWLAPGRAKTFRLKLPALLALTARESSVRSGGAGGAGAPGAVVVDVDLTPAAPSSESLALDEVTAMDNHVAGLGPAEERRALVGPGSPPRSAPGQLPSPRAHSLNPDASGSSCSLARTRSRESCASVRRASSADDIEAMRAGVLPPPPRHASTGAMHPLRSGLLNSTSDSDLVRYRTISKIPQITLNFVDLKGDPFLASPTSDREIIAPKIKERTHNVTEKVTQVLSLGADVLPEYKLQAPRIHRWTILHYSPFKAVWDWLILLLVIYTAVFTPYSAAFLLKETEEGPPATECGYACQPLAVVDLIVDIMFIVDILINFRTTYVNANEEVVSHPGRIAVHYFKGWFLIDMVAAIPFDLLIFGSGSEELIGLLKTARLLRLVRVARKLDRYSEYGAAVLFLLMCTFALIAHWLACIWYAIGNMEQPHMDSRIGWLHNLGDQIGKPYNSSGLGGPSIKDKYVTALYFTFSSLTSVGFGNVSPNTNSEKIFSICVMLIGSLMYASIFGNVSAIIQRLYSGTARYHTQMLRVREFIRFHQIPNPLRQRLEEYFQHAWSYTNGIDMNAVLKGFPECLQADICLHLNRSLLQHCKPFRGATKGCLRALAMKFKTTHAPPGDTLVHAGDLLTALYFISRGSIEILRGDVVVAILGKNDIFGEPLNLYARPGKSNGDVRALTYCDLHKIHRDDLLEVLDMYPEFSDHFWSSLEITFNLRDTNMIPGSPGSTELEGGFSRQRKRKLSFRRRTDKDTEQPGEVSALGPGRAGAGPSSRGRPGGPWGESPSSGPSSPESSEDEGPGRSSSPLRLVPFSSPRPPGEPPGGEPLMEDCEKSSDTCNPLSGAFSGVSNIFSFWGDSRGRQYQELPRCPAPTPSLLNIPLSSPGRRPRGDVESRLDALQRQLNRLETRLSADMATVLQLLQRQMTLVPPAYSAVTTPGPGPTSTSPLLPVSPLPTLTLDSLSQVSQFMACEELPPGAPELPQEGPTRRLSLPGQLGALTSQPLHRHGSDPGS
Mitogen-activated protein kinase 11, sequence (Q15759 whole entry): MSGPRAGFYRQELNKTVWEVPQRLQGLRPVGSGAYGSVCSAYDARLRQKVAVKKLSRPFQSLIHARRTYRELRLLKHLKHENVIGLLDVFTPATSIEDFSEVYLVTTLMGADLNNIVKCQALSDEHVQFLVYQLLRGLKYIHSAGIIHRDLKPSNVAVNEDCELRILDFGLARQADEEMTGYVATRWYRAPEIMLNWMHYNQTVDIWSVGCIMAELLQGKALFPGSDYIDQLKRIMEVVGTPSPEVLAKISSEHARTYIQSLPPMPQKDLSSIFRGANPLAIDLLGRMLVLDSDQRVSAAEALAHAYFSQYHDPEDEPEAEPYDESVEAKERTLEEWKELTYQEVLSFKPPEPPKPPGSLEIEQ

As for `CC(=O)N1CCC(c2[nH]nc(-c3ccc(F)cc3)c2-c2ccncc2)CC1`, the IC50 in assay [1] was found to be 0.79 µM; in assay [3], 2.77 µM. Also, the inhibition in vivo at 5 mg/kg in assay [2] is 41%.

In general, IC50 refers to the midpoint of a concentration-inhibition curve. Broadly, the inhibition in vivo is how much of the control response was suppressed.
